The values that follow come from US12458630B2, “Combination therapy for cancer” (The Regents of the University of California, priority 2020, dated 2025).

The test system of assay [1] is AKT phosphorylation. The assay can be described thus: Immunoblot of AKT phosphorylation. The settings on record: NRF2(E79Q)-Myc-overexpressing MIA PaCa-2 cells, 600 nM IPI549. It is filed as cell-based, human. The method, then: (§1) Immunoblot and immunoprecipitation. Cells were harvested and lysed in RIPA buffer (50 mM Tris-HCl, pH 7.4, 150 mM NaCl, 1% Triton X-100, 1% Na deoxycholate, 0.1% SDS, 1 mM EDTA) supplemented with complete protease inhibitor cocktail. Proteins were resolved on SDS-polyacrylamide gels, and then transferred to a polyvinylidene difluoride membrane. After blocking with 5% (w/v) fat free milk, the membrane was stained with the corresponding primary antibodies followed by incubation with the appropriate secondary HRP-conjugated antibodies, and development with ECL. Immunoreactive bands were detected by automatic X-ray film processor or KwikQuant Imager.

Assay [2] relates to KC6141 mouse PDAC cells. The assay can be described thus: Cell viability assay (CCK-8). The class given is cell-based. Particulars: WT and IKKα KD 6141 cells on ECM, 0.5 mM glucose, 3 days; EIPA, IPI549 600 nM, MBQ-167 500 nM. The method, then: Extracellular Matrix (ECM) Preparation. Skin fibroblasts were seeded on 6/12/96-well plates. One day after plating, cells were switched into DMEM (with pyruvate) with 10% dialysed FBS supplemented with or without 500 μM ^3H-proline and 100 μM Vitamin C. Cells were cultured for 6 days with media renewal every 24 h. After six days, skin fibroblasts were removed by washing in 1 ml or 500 μl or 100 μl per well PBS with 0.5% (v/v) Triton X-100 and 20 mM NH4OH. ECM was washed five times with PBS before plating KC6141 cells. The following day, KC6141 cells were switched into the indicated medium for 24 or 72 hrs.
Cell viability assay. Cell viability was determined with Cell Counting Kit-8 assay (CCK-8 assay kit, Glpbio). Cells were plated in 96-well plates at a density of 3000 cells (MIA PaCa-2) or 1500 cells (KC6141) per well and incubated overnight prior to treatment. EIPA (10 μM), MRT68921 (600 nM) or erlotinib (2 μM, Sigma) were added to the wells for 72 and 96 hrs. Next, 10 μL of CCK-8 was added to each well. The optical density was read at 450 nm using a microplate reader (FilterMax F5, Molecular Devices, USA) at day 0, 1, 2, 3, and 4. For glutamine-deprivation assays, cells in 96-well plates were rinsed briefly in PBS and incubated in the 0.2 mM glutamine. Glutamine-free DMEM medium was supplemented with 0.2 mM glutamine in the presence of 10% dialysed FBS and 25 mM HEPES. For some conditions, the medium was supplemented with a final concentration of 2% BSA (Fraction V, fatty-acid-, nuclease and protease-free, Calbiochem). For all experiments, media were replaced every 24 hrs. Viable cell counts were obtained using CCK-8 assay described as above.
(§2) In some embodiments, cells were plated in 96-well plates coated with or without ECM at a density of 3000 cells (MIA PaCa-2, 1444, 1305, COLO 357/FG) or 1500 cells (KC6141) per well and incubated overnight prior to treatment. EIPA (10.5 μM), IPI549 (600 nM), MBQ-167 (500 nM), MRT68921 (600 nM) or erlotinib (2 μM, Sigma), ML385 (10 μM, Sigma), HCQ (10 μM or 80 μM) or their combinations were added to the wells for 24, 72 or 96 hrs. Next, 10 μL of CCK-8 was added to each well. The optical density was read at 450 nm using a microplate reader (FilterMax F5, Molecular Devices, USA) at day 0, 1, 2, 3, and 4. For glutamine-deprivation assays, cells in 96-well plates were rinsed briefly in PBS and incubated in the 0.2 mM glutamine. Glutamine-free DMEM medium was supplemented with 0.2 mM glutamine in the presence of 10% dialyzed FBS and 25 mM HEPES. For glucose-deprivation assays, cells in 96-well plates were rinsed briefly in PBS and incubated in the 0.5 mM glucose. Glucose-free DMEM medium was supplemented with 0.5 mM glucose in the presence of 10% dialyzed FBS and 25 mM HEPES. For some conditions, the medium was supplemented with a final concentration of 2% BSA (Fraction V, fatty-acid-, nuclease and protease-free, Calbiochem). For all experiments, media were replaced every 24 hrs. Viable cell counts were obtained using CCK-8 assay described as above.

Assay [3] deals with BxPC3 cells. The assay can be described thus: TMR-DEX macropinosome uptake assay. The class given is cell-based, human. The settings on record: WT and IKKα KO BxPC3 cells (WT KRAS), ML385 10 μM, 24 hrs.
Procedure: Cell imaging. […] Cells were cultured on coverslips and fixed in 4% PFA for 10 min at room temperature. After washing twice in PBS, cells were incubated in PBS containing 10% FBS to block nonspecific sites of antibody adsorption. The cells were then incubated with the appropriate primary antibodies (diluted 1:100) and secondary antibodies (diluted 1:500) in PBS containing 10% FBS with or without 0.1% saponin. For cell macropinosome visualization, 24 hrs after seeding, the cells were serum starved for 18 hrs. […] At the end of the incubation period, the cells were rinsed five times in cold PBS and immediately fixed in 4% PFA. For tissue macropinosome visualization^45, fresh pancreata were cut into pieces with an approximate 5-mm cuboidal shape. […]
Quantification and statistics. To quantify the number of LC3 puncta, a total of 30 cells were recorded and analyzed using the LAS X measurement program on the TCS SPE Leica. Macropinosomes were quantified by using the ‘Analyze Particles’ feature in ImageJ (National Institutes of Health). […]
In some embodiments, to quantify LC3 puncta or LC3-LAMP1 co-localization, a total of 30 cells were recorded and analyzed using the LAS X measurement program on the TCS SPE Leica. Macropinosomes were quantified by using the ‘Analyze Particles’ feature in Image J (National Institutes of Health). […]
The subject of assay [4] is 1305 primary human PDAC cells. Briefly: Cell viability assay (CCK-8). It is filed as cell-based. The settings on record: IKKα^low 1305 cells, 3 days. The protocol: as §2
Assay [5] relates to MP-related proteins. The assay can be described thus: Immunoblot of MP-related proteins in BxPC3 cells. It is filed as cell-based, human. Particulars: WT and IKKα KO BxPC3 cells, ML385 10 μM, 24 hrs. The protocol: as §1

Regarding `C[C@H](NC(=O)c1c(N)nn2cccnc12)c1cc2cccc(C#Cc3cnn(C)c3)c2c(=O)n1-c1ccccc1` [IPI549], the AKT phosphorylation entry in assay [1] is “suppression of AKT phosphorylation”. Also, the “cell viability enhanced by extracellular matrix (ECM)” value in assay [2] is recorded as “suppressed”.
As to `Cc1ccccc1C(=O)N1CCc2cc(-c3nc(NC(=O)Cc4ccc5c(c4)OCO5)sc3C)ccc21` [ML385], the “TMR-DEX uptake increased by IKKα ablation” value in assay [3] is “blocked this effect”. For the same molecule, the “sensitivity to single agent (cell viability)” value in assay [4] was “very sensitive”. Besides, in assay [5], the “MP-related protein expression increased by IKKα ablation” value is “blocked this effect”.
